Assay results: PubChem BioAssay (NCI)
Where “and” joins values, the source holds several entries; their conditions need not be identical. Equal values may be shown once.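 48-hour exposure; five concentrations; linearly interpolated endpoints. GI50: concentration for 50% inhibition of growth. Definition used: TGI = concentration required for complete inhibition of growth.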

Tests used:
Assay in all cases: DTP human tumour cell line panel, 48 h
UACC-257 melanoma = test system: UACC-257 melanoma
ACHN renal = test system: ACHN renal
SNB-75 CNS = test system: SNB-75 CNS
SK-MEL-5 melanoma = test system: SK-MEL-5 melanoma
OVCAR-5 ovarian = test system: OVCAR-5 ovarian
A549 NSCLC = test system: A549 NSCLC
OVCAR-8 ovarian = test system: OVCAR-8 ovarian
SF-268 CNS = test system: SF-268 CNS
PC-3 prostate = test system: PC-3 prostate
HOP-92 NSCLC = test system: HOP-92 NSCLC

COc1ccc(Cn2c(=O)c(OS(=O)(=O)C(F)(F)F)c(C)c3cc4ccccc4cc32)cc1 showed a TGI (UACC-257 melanoma) of over 100 µM, a TGI (ACHN renal) of over 100 µM and a TGI (SNB-75 CNS) of over 100 µM. For the same molecule, the TGI (SK-MEL-5 melanoma) was over 100 µM, the TGI (OVCAR-5 ovarian) was over 100 µM and the TGI (A549 NSCLC) was over 100 µM. For the same molecule, the TGI (OVCAR-8 ovarian) was over 100 µM, the TGI (SF-268 CNS) was over 100 µM and the TGI (PC-3 prostate) was over 100 µM.

With CC(C)(C)N=C1C(=O)C2(C)CCC1C2(C)C (stereo unspecified) the TGI (UACC-257 melanoma) was over 100 µM, the TGI (ACHN renal) was over 100 µM and the TGI (SK-MEL-5 melanoma) was over 100 µM. The TGI (OVCAR-5 ovarian) was over 100 µM, the TGI (A549 NSCLC) was over 100 µM and the TGI (OVCAR-8 ovarian) was over 100 µM. The TGI (SF-268 CNS) was over 100 µM and the TGI (PC-3 prostate) was over 100 µM.

In the case of CCCCn1c(-c2ccccc2)cs/c1=N\NC(=O)Cn1c(C)nc2ccccc21, the TGI (UACC-257 melanoma) is reported as over 100 µM, the TGI (ACHN renal) is reported as over 100 µM and the TGI (SNB-75 CNS) is reported as over 100 µM. It also gave a TGI (SK-MEL-5 melanoma) of over 100 µM, a TGI (OVCAR-5 ovarian) of over 100 µM and a TGI (A549 NSCLC) of over 100 µM. The TGI (OVCAR-8 ovarian) was over 100 µM.

With CSCSCC(CO)NC(=O)/C=C\c1c(C)[nH]c(=O)[nH]c1=O (stereo unspecified) the TGI (UACC-257 melanoma) was 208 µM, the TGI (SNB-75 CNS) was 118 µM and the TGI (SK-MEL-5 melanoma) was 105 µM. The TGI (OVCAR-5 ovarian) was 277 µM, the TGI (A549 NSCLC) was 375 µM and the TGI (HOP-92 NSCLC) was 10.1 µM. For the same molecule, the TGI (OVCAR-8 ovarian) was 89.9 µM and the TGI (SF-268 CNS) was 112 µM.

Work on COc1cc(/C=C2\N=C(c3ccccc3)N(c3cc4cc(Sc5ccccc5)ccc4[nH]3)C2=O)ccc1O yielded a TGI (UACC-257 melanoma) of over 50 µM, a TGI (ACHN renal) of over 50 µM and a TGI (SNB-75 CNS) of over 50 µM. For the same molecule, the TGI (SK-MEL-5 melanoma) was over 50 µM, the TGI (OVCAR-5 ovarian) was over 50 µM and the TGI (A549 NSCLC) was over 50 µM. The TGI (HOP-92 NSCLC) was over 50 µM and the TGI (OVCAR-8 ovarian) was over 50 µM.

O=C(O)C12C=CC(C1)c1ccccc12 (stereo unspecified) showed a TGI (UACC-257 melanoma) of over 100 µM, a TGI (ACHN renal) of over 100 µM and a TGI (SK-MEL-5 melanoma) of over 100 µM. It also gave a TGI (OVCAR-5 ovarian) of over 100 µM, a TGI (A549 NSCLC) of over 100 µM and a TGI (HOP-92 NSCLC) of over 100 µM. For the same molecule, the TGI (OVCAR-8 ovarian) was over 100 µM and the TGI (SF-268 CNS) was over 100 µM.

Work on CC(C)(C1=NC(C(C)(C)C)CO1)C1=N[C@@H](C(C)(C)C)CO1 (stereo partly specified) yielded a TGI (UACC-257 melanoma) of over 100 µM, a TGI (ACHN renal) of over 100 µM and a TGI (SNB-75 CNS) of over 100 µM. For the same molecule, the TGI (SK-MEL-5 melanoma) was over 100 µM, the TGI (OVCAR-5 ovarian) was over 100 µM and the TGI (A549 NSCLC) was over 100 µM. For the same molecule, the TGI (HOP-92 NSCLC) was over 100 µM, the TGI (OVCAR-8 ovarian) was over 100 µM and the TGI (SF-268 CNS) was over 100 µM.

Cc1c2cc[n+](C)cc2c(C)c2c1[nH]c1ccc(OCC(F)(F)F)cc12 was tested, and the GI50 (UACC-257 melanoma) was 4.02 µM and 14.8 µM, the TGI (UACC-257 melanoma) was 20 µM and > 100 µM and the GI50 (ACHN renal) was 12 µM and > 100 µM. For the same molecule, the TGI (ACHN renal) was over 100 µM, the GI50 (SNB-75 CNS) was 0.837 µM and 0.271 µM and the TGI (SNB-75 CNS) was 2.62 µM and 0.833 µM. For the same molecule, the TGI (SK-MEL-5 melanoma) was 11.2 µM and 7.07 µM, the GI50 (OVCAR-5 ovarian) was 12 µM and > 100 µM and the TGI (OVCAR-5 ovarian) was over 100 µM. For the same molecule, the TGI (A549 NSCLC) was over 100 µM, the TGI (HOP-92 NSCLC) was 8.98 µM and > 28.5 µM and the TGI (OVCAR-8 ovarian) was over 100 µM. It also gave a TGI (SF-268 CNS) of 0.638 µM.

Work on c1ccc(C2N=C(c3ccccn3)C(c3ccccn3)=NC2c2ccccc2)cc1 (stereo unspecified) yielded a TGI (UACC-257 melanoma) of over 100 µM, a TGI (ACHN renal) of over 100 µM and a TGI (SK-MEL-5 melanoma) of over 100 µM. The TGI (OVCAR-5 ovarian) was over 100 µM, the TGI (A549 NSCLC) was over 100 µM and the TGI (HOP-92 NSCLC) was over 100 µM. It also gave a TGI (OVCAR-8 ovarian) of over 100 µM and a TGI (SF-268 CNS) of over 100 µM.

C=C1C(=O)OC2C[C@@]3(C)CCCC(=C)C3CC12 (stereo partly specified) gave a TGI (UACC-257 melanoma) of 22 µM, a TGI (ACHN renal) of 26.9 µM and a TGI (SNB-75 CNS) of 20.1 µM. It also gave a TGI (SK-MEL-5 melanoma) of 20.4 µM, a TGI (OVCAR-5 ovarian) of 33.6 µM and a TGI (A549 NSCLC) of 27.7 µM. For the same molecule, the TGI (HOP-92 NSCLC) was 14.6 µM, the TGI (OVCAR-8 ovarian) was 24.6 µM and the TGI (SF-268 CNS) was 28.2 µM.

COC(=O)c1c(CC(=O)OC(C)C)cc2n(c1=O)Cc1c-2nc2ccccc2c1OC showed a TGI (UACC-257 melanoma) of over 100 µM, a TGI (ACHN renal) of over 100 µM and a TGI (SNB-75 CNS) of over 100 µM. For the same molecule, the TGI (SK-MEL-5 melanoma) was over 100 µM, the TGI (OVCAR-5 ovarian) was over 100 µM and the TGI (A549 NSCLC) was over 100 µM. For the same molecule, the TGI (HOP-92 NSCLC) was over 100 µM, the TGI (OVCAR-8 ovarian) was over 100 µM and the TGI (SF-268 CNS) was over 100 µM.

With Cc1ccc(N2Cc3c(ccc4ccccc34)OP2(=S)N2CCCC2)cc1 (stereo unspecified) the TGI (UACC-257 melanoma) was over 100 µM, the TGI (SNB-75 CNS) was over 100 µM and the TGI (SK-MEL-5 melanoma) was over 100 µM. For the same molecule, the TGI (OVCAR-5 ovarian) was over 100 µM, the TGI (A549 NSCLC) was over 100 µM and the TGI (HOP-92 NSCLC) was over 100 µM. The TGI (OVCAR-8 ovarian) was over 100 µM and the TGI (SF-268 CNS) was over 100 µM.

For C/C(N=NS(=O)(=O)c1c(C)cc(C)cc1C)=C1\C=CC=CN1O, the TGI (UACC-257 melanoma) was over 100 µM, the TGI (ACHN renal) was over 100 µM and the TGI (SNB-75 CNS) was over 100 µM. For the same molecule, the TGI (SK-MEL-5 melanoma) was over 100 µM, the TGI (OVCAR-5 ovarian) was over 100 µM and the TGI (A549 NSCLC) was over 100 µM. It also gave a TGI (HOP-92 NSCLC) of over 100 µM, a TGI (OVCAR-8 ovarian) of over 100 µM and a TGI (SF-268 CNS) of over 100 µM.

O=c1[nH]c(=S)[nH]c2c1CCCN2 gave a TGI (UACC-257 melanoma) of over 100 µM, a TGI (ACHN renal) of over 100 µM and a TGI (SNB-75 CNS) of over 100 µM. It also gave a TGI (SK-MEL-5 melanoma) of over 100 µM, a TGI (OVCAR-5 ovarian) of over 100 µM and a TGI (A549 NSCLC) of over 100 µM. The TGI (HOP-92 NSCLC) was over 100 µM, the TGI (OVCAR-8 ovarian) was over 100 µM and the TGI (SF-268 CNS) was over 100 µM.

Work on COc1cccc(C2C(C#N)=C(N)Oc3cc(OCCCCCC[P+](c4ccccc4)(c4ccccc4)c4ccccc4)ccc32)c1 (stereo unspecified) yielded a GI50 (ACHN renal) of 2.04 µM, a TGI (ACHN renal) of 4.92 µM and a GI50 (SNB-75 CNS) of 0.21 µM. The TGI (SNB-75 CNS) was 2.11 µM, the GI50 (OVCAR-5 ovarian) was 1.35 µM and the TGI (OVCAR-5 ovarian) was 3.15 µM. It also gave a GI50 (A549 NSCLC) of 1.53 µM, a TGI (A549 NSCLC) of 4.51 µM and a GI50 (HOP-92 NSCLC) of 0.23 µM. It also gave a TGI (HOP-92 NSCLC) of 0.912 µM.

With O=Cn1c2ccccc2c2ccccc21 the TGI (UACC-257 melanoma) was over 100 µM, the TGI (ACHN renal) was over 100 µM and the TGI (SK-MEL-5 melanoma) was over 100 µM. It also gave a TGI (OVCAR-5 ovarian) of over 100 µM, a TGI (A549 NSCLC) of over 100 µM and a TGI (HOP-92 NSCLC) of over 100 µM. For the same molecule, the TGI (OVCAR-8 ovarian) was over 100 µM and the TGI (SF-268 CNS) was over 100 µM.

With C/C(=N/NC(N)=S)C(CN1CCOCC1)C(C1=C(O)c2ccccc2OC1)c1ccccc1 (stereo unspecified) the TGI (UACC-257 melanoma) was over 100 µM, the TGI (ACHN renal) was over 100 µM and the TGI (SNB-75 CNS) was over 100 µM. The TGI (SK-MEL-5 melanoma) was over 100 µM, the TGI (OVCAR-5 ovarian) was over 100 µM and the TGI (A549 NSCLC) was over 100 µM. It also gave a TGI (HOP-92 NSCLC) of over 100 µM, a TGI (OVCAR-8 ovarian) of over 100 µM and a TGI (SF-268 CNS) of over 100 µM.

NCCCNCCSP(=O)(O)O showed a TGI (UACC-257 melanoma) of over 750 µM, a TGI (SNB-75 CNS) of over 750 µM and a TGI (SK-MEL-5 melanoma) of over 750 µM. It also gave a TGI (OVCAR-5 ovarian) of over 750 µM, a TGI (A549 NSCLC) of over 750 µM and a TGI (HOP-92 NSCLC) of over 750 µM. The TGI (OVCAR-8 ovarian) was over 511 µM and the TGI (SF-268 CNS) was over 750 µM.

For COC(=O)CCC(NC(=S)N/N=C(\C)c1cccs1)C(=O)OC (stereo unspecified), the TGI (UACC-257 melanoma) was over 100 µM, the TGI (ACHN renal) was over 100 µM and the TGI (SNB-75 CNS) was over 100 µM. For the same molecule, the TGI (SK-MEL-5 melanoma) was over 100 µM, the TGI (OVCAR-5 ovarian) was over 100 µM and the TGI (A549 NSCLC) was over 100 µM. The TGI (HOP-92 NSCLC) was over 100 µM, the TGI (OVCAR-8 ovarian) was over 100 µM and the TGI (SF-268 CNS) was over 100 µM.
